Like-named read-outs stand apart in the source and are kept apart here.
Tests used:
[1] = system: Aβ42 secretion; assay: Aβ40/Aβ42 ELISA of culture supernatants, CHO cells expressing APP751; assay type: cell-based, Chinese hamster
Experimental: (§1) Cell cultures were maintained in standard cell culture media supplemented with 10% fetal bovine serum and 100 U/mL penicillin/streptomycin (Life Technologies Inc., Germany).
(§2) For analyses of Aβ secretion, APP processing, and notch cleavage, cells were cultured in serum-containing media and pretreated overnight with a specific NSAID. The next day, media were changed and cultures were treated with the same NSAID for another 24 hours.
(§3) Aβ was detected by sandwich enzyme-linked immunosorbent assay (ELISA) as described by Murphy et al. (2000) J Biol Chem 275:26277-84. Following NSAID treatment, culture supernatants were collected, and cell debris was removed by centrifugation. Complete protease inhibitor cocktail (Roche Molecular Biochemicals, IN, USA) was added to the media and Aβ40 and Aβ42 levels were quantified using end-specific Aβ ELISAs. All measurements were performed in duplicate.
The effect of sulindac sulfone on Aβ42 secretion was examined. Sulindac sulfone is an oxidation product of the pro-drug sulindac. […] Cell cultures were treated with increasing concentrations of sulindac sulfone. Aβ40 and Aβ42 levels in culture supernatants were analyzed using ELISA.
(§4) Aβ40 and Aβ42 levels in cell culture supernatants were analyzed using ELISA. Aβ42/Aβ40 ratios and total Aβ levels were normalized to values obtained from DMSO-treated cultures. […] NSAIDs were verified using NMR and mass spectrometry.

[2] = system: Aβ42 secretion; assay: Non-selective and selective COX-inhibitors tested for effect on Aβ42 levels in cell cultures (Table 1 summary); assay type: cell-based; conditions: for Aβ42/Aβ40 ratio: effect up to the highest conc. tested listed per drug in Table 1
Experimental: All measurements were performed in duplicate.
as §4

[3] = system: Aβ42 secretion; assay: Primary in vitro screen, CHO-APP695NL,I,his cells, end-specific Aβ40 and Aβ42 ELISAs; assay type: cell-based, Chinese hamster; conditions: for activity at 100 µM / activity at 10 µM: Cricetulus griseus, 6 h
Experimental: Aβ40 and Aβ42 levels in culture supernatants were determined for each time points using ELISA.
In a primary screen, the effects of NSAIDs on Aβ42 secretion by a CHO cell line that expressed APP(CHO-APP695NL,I,his) were examined. Duplicate cell cultures were treated with (a) a vehicle, (b) 10 μM of NSAID, or (c) 100 μM of NSAID.
To determine Aβ40 and Aβ42 levels, six-hour culture supernatants taken from cells grown in a single well of a twenty-four-well plate were used in end-specific Aβ40 and Aβ42 ELISAs (Suzuki, et al. (1994) Sci 264:[…]). Aβ40 and Aβ42 levels of cultures treated with NSAID were compared with those of cultures treated with the vehicle alone. […] NSAIDs that caused either selective reduction of Aβ42 levels or reduction in both Aβ40 and Aβ42 levels are subjected to a secondary screen.

[4] = plasma concentration of the drug; cited from earlier work
[5] = system: COX-1/COX-2; conditions: cited from earlier work
[6] = system: Aβ42 secretion; assay: Aβ40/Aβ42 ELISA of culture supernatants, CHO cells expressing APP751 and PS-1 mutant M146L; assay type: cell-based, Chinese hamster
Experimental: as §1, §2, §3
(§5) Levels of Aβ40 and Aβ42 in culture supernatants were analyzed using ELISA. […] Aβ42/Aβ40 ratios and total Aβ levels (i.e., the sum of Aβ40 and Aβ42 values) were normalized to values obtained from DMSO-treated cells. Results shown were averages of two or three experiments performed in duplicate.
Aβ40 and Aβ42 levels in culture supernatants were analyzed using ELISA as described in Example 3. […] Aβ42/Aβ40 ratios and total Aβ levels were normalized to values obtained from ethanol-treated cells. Results shown were averages of two or three experiments, each performed in duplicate.

[7] = system: APP processing; assay: Western blot of APP, APP CTFs and sAPP, CHO cells expressing APP751; assay type: cell-based, Chinese hamster
Source text: Expression of holo-APP and APP C-terminal fragments (CTFs) was examined by Western blot analysis using antibody CT-15. APP secretion was examined by Western blotting using a mixture of 5A3/IG7 antibodies. APP turnover was examined by pulse labeling of CHO cells with 150 μCi [^35S]-methionine for fifteen minutes followed by a cold chase step for up to four hours. Cell lysates were immunoprecipitated with antibody CT-15, subjected to SDS-PAGE, and analyzed by phosphor imaging.
Cell lysates were prepared, and steady-state APP levels were examined using 4-12% gradient-gel electrophoresis and western blotting using the polyclonal antibody CT15.

[8] = system: Notch intramembrane cleavage; assay: Notch intramembrane cleavage and NICD formation in HEK293 cells; assay type: cell-based
Source text: Two Notch-encoding vector constructs were used in examining Notch processing. These were a construct expressing a myc-tagged NH2-terminal truncated Notch-1 polypeptide (NotchΔEMV), and a construct expressing only the Notch intracellular cytoplasmic domain (NICD) (see Kopan et al. (1996) Proc Natl Acad Sci USA 93:1683-8). In the construct expressing a myc-tagged NH2-terminal truncated Notch-1 polypeptide, the start codon, a methionine at position 1726, was mutated to a valine to eliminate translation initiation.
Notch intramembrane cleavage and formation of NICD were analyzed in kidney HEK293 cells. The myc-tagged NotchΔEMV construct encoding a constitutively cleaved Notch variant was transiently transfected into HEK293 cells. […] Then they were pulse labeled with ^35S-methionine for thirty minutes and chased for two hours. Cell lysates were prepared and subjected to immunoprecipitation with monoclonal antibody 9E10. Immunoprecipitated proteins were subjected to SDS-PAGE and phosphor imaging analyses.

[9] = system: Aβ42 secretion; assay: Aβ secretion in kidney HEK293 cells; assay type: cell-based; conditions: data not shown
Experimental: as §1, §2, §3, §5

[10] = system: Aβ42 secretion; assay: Aβ ELISA, primary fibroblasts from COX-1/COX-2 double-knockout mice expressing APP695; assay type: cell-based; conditions: primary mouse embryonic fibroblasts; data not shown
Source text: as §1, §3

[11] = system: CHO or HS683 cells; assay: NSAID cell toxicity, MTT-assay or [3H]-thymidine incorporation assay; conditions: concentrations up to 100 μM; data not shown
Source text: NSAID toxicity in CHO or HS683 cells was examined using standard MTT-assay (3-(4,5-Dimethyl-2-thiazolylyl)-2,5-diphenyl-2H-tetrazolium Bromide) or [^3H]-thymidine incorporation assay.

[12] = system: Aβ species; assay: Immunoprecipitation/mass spectrometry of secreted Aβ species, CHO cells expressing APP751; assay type: cell-based, Chinese hamster
Experimental: Secretion of Aβ peptides was analyzed using immunoprecipitation/mass spectrometry as described by Wang et al. (1996) J Biol Chem 271:31894-902. Briefly, 1 mL amount of culture supernatant was subjected to immunoprecipitation using the monoclonal antibody 4G8 (Senetek, CA, USA). Molecular masses and concentrations of Aβ peptides were measured using a matrix assisted laser desorption/ionization time-of-flight (MALDI-TOF) mass spectrometer. To compare the concentrations of individual Aβ species in culture supernatants, synthetic Aβ12-28 peptides (Sigma, MO, USA) were added to the supernatant samples as internal standards and relative peak heights were calculated.
To examine Aβ species secreted by cells treated with sulindac sulfide, immunoprecipitation and mass spectrometry analyses were performed. […] Various Aβ species including Aβ1-42, Aβ1-39, Aβ1-38, and Aβ1-37 were quantified. […] Duplicate measurements were used in generating the bar graph. […] Increases in Aβ1-38 levels were dose-dependent.

[13] = system: Aβ species; assay: Bicine/Urea Aβ western blot, CHO cells expressing APP751 and mutant PS-1; assay type: cell-based, Chinese hamster; conditions: 60 μM or 80 μM, compared with DMSO
Experimental: Bicine/Urea Aβ western blot analysis was performed as described by Wiltfang et al. (1997) Electrophoresis 18:527-32. A 1 mL amount of culture supernatant was subjected to immunoprecipitation using monoclonal antibody 26D6. Immunoprecipitates were mixed with sample buffer and heated to 95° C. for five minutes. Eluant samples were separated on Bicine/Urea gels, then transferred to nitrocellulose membranes, and probed with antibody 26D6. Standard Aβ1-40, Aβ1-42 and Aβ1-38 peptides (Sigma, MO, USA) were used for identification of the Aβ species.
AP polypeptides were immunoprecipitated from culture supernatants of CHO cells expressing APP751 and mutant PS-1. Immunoprecipitates were separated on an SDS-urea gel system that can resolve individual Aβ species (see Wiltfang et al. (1997) Electrophoresis 18:527-32). Standard Aβ1-38, Aβ1-40, and Aβ1-42 peptides were included for identification of different Aβ species.

[14] = six-hour culture supernatants, read-out: % Control % Aβ42
[15] = six-hour culture supernatants, read-out: % Control Aβ40
[16] = six-hour culture supernatants, read-out: % Control Aβ42
[17] = cell cultures, cell line and concentration not stated
[18] = CHO cells expressing APP751, concentrations up to 400 μM
[19] = concentration not given, six-hour culture supernatants

Compound: CC(=O)Oc1ccccc1C(=O)O [Aspirin, Acetylsalicylic acid]
- Aβ42 secretion ([1]; concentrations of up to 3 mM, data not shown): no reductions in Aβ42 secretion were observed
- Aβ42/Aβ40 ratio [2]: no effect
- activity at 100 µM [3, 14]: 104%
- activity at 100 µM [3, 15]: 93%
- activity at 100 µM [3, 16]: 99%
- Plasma [4]: 111 µM
- COX-1/COX-2 selectivity# (1 = equal activity) [5]: 166

Compound: COc1ccc2c(c1)c(CC(=O)O)c(C)n2C(=O)c1ccc(Cl)cc1 [Indomethacin, indomethacin]
- total Aβ levels ([6]; concentrations up to 100 μM): not significantly affected
- accumulation of APP-CTFs ([7]; 150 μM, data not shown): did not cause
- inhibition of Notch cleavage ([8]; 150 μM, data not shown): did not cause
- activity at 100 µM [3, 14]: 68%
- activity at 100 µM [3, 15]: 101%
- activity at 100 µM [3, 16]: 69%

Compound: CS(=O)(=O)Nc1ccc([N+](=O)[O-])cc1OC1CCCCC1 [NS-398]
- Aβ42/Aβ40 ratios [2, 17]: did not affect
- total Aβ levels [2, 17]: did not affect
- Aβ42/Aβ40 ratio [2]: no effect
- activity at 10 µM ([3]; 10 μM, six-hour culture supernatants, read-out: % Control % Aβ42): 132%
- activity at 10 µM ([3]; 10 μM, six-hour culture supernatants, read-out: % Control Aβ40): 101%
- activity at 10 µM ([3]; 10 μM, six-hour culture supernatants, read-out: % Control Aβ42): 146%
- COX-1/COX-2 selectivity# (1 = equal activity) [5]: .07

Compound: COc1ccc2cc([C@H](C)C(=O)O)ccc2c1 [Naproxen, naproxen]
- total Aβ levels [1, 18]: did not affect total Aβ levels
- activity at 100 µM [3, 14]: 104%
- activity at 100 µM [3, 15]: 107%
- activity at 100 µM [3, 16]: 112%

Compound: CS(=O)(=O)c1ccc(C2=C(c3ccccc3)C(=O)OC2)cc1 [Rofecoxib, rofecoxib]
- Aβ42/Aβ40 ratio ([1]; CHO cells expressing APP751, 20 μM): not seen
- Aβ42/Aβ40 ratio [2]: no effect
- Plasma [4]: 0.003 µM
- COX-1/COX-2 selectivity# (1 = equal activity) [5]: .001

Compound: CC1=C(CC(=O)O)c2cc(F)ccc2/C1=C\c1ccc(S(C)(=O)=O)cc1 [Sulindac Sulfone, sulindac sulfone]
- Aβ42/Aβ40 ratios [1, 18]: no changes in Aβ42/Aβ40 ratios were observed
- % Control % Aβ42 [3, 19]: 92%
- % Control Aβ40 [3, 19]: 109%
- % Control Aβ42 [3, 19]: 97%

Compound: CSc1ccc(/C=C2/C(C)=C(CC(=O)O)c3cc(F)ccc32)cc1 [Sulindac sulfide, sulindac sulfide]
- total Aβ level (sum of Aβ40 and Aβ42) ([6]; sulindac sulfide concentrations of FIG. 1): No significant reduction
- Aβ42 secretion [9]: reduced Aβ42 secretion
- Aβ42 secretion [10]: reduced Aβ42 secretion
- cell toxicity [11]: No cell toxicity was observed
- CTF levels (western blot, CT15) ([7]; compared with DMSO): nor an increase in CTF levels was observed
- steady-state APP levels (western blot, CT15) ([7]; compared with DMSO): neither a change in APP levels
- secretion of the APP ectodomain (sAPP) ([7]; increasing concentrations, 5A3/1G7 antibodies): no significant change
- Notch cleavage and NICD formation ([8]; 125 μM for 36 hours, HEK293 cells transfected with NotchΔEMV): did not impair Notch cleavage and NICD formation
- Aβ42 secretion (mass spectrometry) ([12]; 75-100 μM): strong reduction
- levels of Aβ40 (mass spectrometry) ([12]; 75-100 μM): largely unaffected
- increases in Aβ1-38 levels ([12]; 75 or 100 μM): dose-dependent
- other Aβ peptide levels ([12]; compared with DMSO): did not vary consistently
- immuno-reactive band corresponding to Aβ1-38 [13]: equivalent increase in the intensity
- immuno-reactive band corresponding to Aβ42 [13]: reduction in the intensity
- activity at 10 µM ([3]; read-out: % Control % Aβ42): 65%
- activity at 10 µM ([3]; read-out: % Control Aβ40): 97%
- activity at 10 µM ([3]; read-out: % Control Aβ42): 57%
- Plasma [4]: 14.6 µM

Source: patent US20060004086A1, “Method of reducing Abeta42 and treating diseases” (Mayo Foundation for Medical Education and Research, priority 2000, published 2006)
